Source: US20150352072A1, “ZINC N-ACETYL TAURINATE FOR THE TREATMENT OF PROSTATE CANCER” (TRI-INOV, priority 2011, published 2015)
Entries after “also recorded” stand apart in the source; their conditions may differ.

Key:
Type in all cases: cell-based
[1] = tested on: LNCaP prostate cancer cell line; test: Cell count by Trypan blue exclusion, LNCaP cancer cells
Method: The LNCaP prostate cancer cell line, deposited in the ATCC under No. CRL-1740, was used.
The cell culture medium was RPMI 1640 complete growth medium (ATCC No. 30-2001), containing 2 mM L-glutamine, 10 mM HEPES and 1.0 mM sodium pyruvate, to which the following were added: • 1) sodium carbonate and glucose in amounts sufficient to obtain a sodium carbonate concentration of 20 mM and a glucose concentration of 25 mM, • 2) […] by volume of a mixture of antibiotics (10 μg/ml of gentamycin, 100 IU of penicillin, 100 μg/ml of streptomycin), and • 3) 10% by volume of fetal calf serum.
(§1) For the dose-dependence studies, the cells (50% confluent) were treated with ATA-Zn at the concentrations of 10^−3, 10^−4, 10^−5, 10^−6, 10^−7, 10^−8 and 10^−9M, for 24 hours, 48 hours and 72 hours in their respective growth medium. After 48 h of treatment, the cells were harvested and counted in the pellet. In parallel, the cell lysates were prepared in order to extract the mRNA for RT-Q-PCR and Western blotting.
(§2) In order to evaluate the number of cells, the cell pellets were mixed with 1 ml of their respective medium and the cell viability and the number of cells were evaluated by means of a Trypan blue exclusion test.
The viable cells and the non-viable cells were counted after Trypan blue exclusion. […] The mortality evolved in the opposite direction, with a maximum increase of about 50%. The concentration of 10^−3M was toxic. The results obtained are reported on the graphs of FIGS. 1a and 1b, which give the percentage of cancer cells relative to the control (cell culture without ATA-Zn) as a function of the concentration of ATA-Zn. FIG. 1a relates to the viable cells and FIG. 1b relates to the non-viable cells.

[2] = tested on: Bax/Bcl-2 ratio; test: Bax/Bcl-2 mRNA ratio by RT-Q-PCR in LNCaP cells; settings: 10^−5-10^−9M, 48 hours
Method: as §1
(§3) The mRNA was extracted from the cells in culture using the “SV Total RNA isolation” kit from the company Promega and according to the procedure hereinafter:
(§4) A reverse transcription of the RNA was then carried out using the ready to go kit (kit known as “Ready To Go, You Prime First Strand Beads” commercially available from Amersham Biosciences, Piscataway, United States) in accordance with the supplier's instructions using 3 μg of RNA.
(§5) The “LightCycler-Fast Start DNA Master SYBR Green I” test commercially available from Roche Diagnostics, Meylan, France, was used to quantify the gene expression by means of a real-time polymerase chain reaction (PCR). […]
LNCaP cells were incubated with various concentrations of ATA-Zn (10^−5-10^−9M) for 48 hours. The change in the synthesis of Bax mRNA and Bcl-2 mRNA was measured by RT-Q-PCR according to the procedure described previously in the section entitled “Materials and methods”.

[3] = tested on: Bax and Bcl-2; test: Bax/Bcl-2 mRNA by RT-Q-PCR in PrECs; settings: Bax and Bcl-2 base amount too low for PCR amplification, a conclusion
Method: as §1, §3, §4
(§6) The “LightCycler-Fast Start DNA Master SYBR Green I” test commercially available from Roche Diagnostics, Meylan, France, was used to quantify the gene expression by means of a real-time polymerase chain reaction (PCR). The PCR (program: 95° C., 30 seconds; 40 cycles: 95° C., 5 seconds; 60° C., 35 seconds) was carried out using a “Mastercycler ep realplex” apparatus sold by the company Eppendorf, Hamburg, Germany.
(§7) The expression of the target gene was standardized relative to the GAPDH housekeeping gene. […]

[4] = tested on: cyclin-D1 mRNA; test: Cyclin-D1 mRNA by RT-Q-PCR in LNCaP cells; settings: 10^−5-10^−9M, after 24 hours of exposure
Method: as §1, §3, §4, §5
The amount of cyclin-D1 mRNA was measured by RT-Q-PCR according to the procedure previously described in the section entitled “Materials and methods”. […]

[5] = tested on: SOD-1 protein; test: SOD-1 protein by Western blotting in LNCaP cells; settings: 48 hours, standardized relative to actin
Method: (§8) The cells were lysed in the buffer for the radioimmunoprecipitation test, having the composition hereinafter:
(§9) The proteins were then separated by SDS-PAGE and were transferred onto a Hybond-P PVDF membrane (Amersham Biosciences, Pantin, France). The membranes were incubated for 1 hour at ambient temperature with a blocking solution consisting of skimmed milk powder at 5% in TBS-T buffer (50 mM Tris-HCl, pH 8.0, 150 mM NaCl, Tween-20 at 0.1%).
(§10) The membranes were then incubated with rabbit primary antibodies directed against cyclin-D1 (No. 29785); the markers Bax (No. 1063.1) and BCL-2 (No. 1017-1); Nrf-2 (No. 2178-1) and SOD-1 (No. 2018-1) all sold by the company Epitomies under the references indicated above, and the A2103 anti-actin, N-terminal, antibodies sold by the company Sigma-Aldrich (Saint Quentin Fallavier, France) in the blocking solution overnight at 4° C. The said antibodies were diluted in accordance with the manufacturer's instructions to 1/1000. The anti-actin antibodies served to standardize the membranes. […]
(§11) LNCaP cells were incubated with a range of ATA-Zn concentrations for 48 hours. The amount of Nrf-2 and SOD-1 proteins were then measured by Western blotting. The quantification was carried out with the “Quantity One” software and the results were standardized relative to the actin data. […]

[6] = tested on: Normal prostate epithelial cells (PrECs); test: Cell count by Trypan blue exclusion, normal PrECs
Method: Normal prostate epithelial cells (PrECs) and the PrEC growth medium sold by the company Cambrex Bioscience (Walkersville, Md.) were used by way of comparison.
as §1, §2

[7] = tested on: cyclin-D1 mRNA; test: Cyclin-D1 mRNA by RT-Q-PCR in normal cells; settings: normal cells (PrECs), 24 hours
Method: as §1, §3, §4, §6, §7

[8] = tested on: Nrf-2 protein; test: Nrf-2 protein by Western blotting in LNCaP cells; settings: 48 hours, standardized relative to actin
Method: as §8, §9, §10, §11

Question: Which results are given for zinc N-acetyltaurinate [ATA-Zn]?
Answer: antiproliferative effect / number of cells ([1]; LNCaP cancer cells of the prostate, 48 hours, each dose): antiproliferative effect; also recorded: reduced the number of cells at each dose; toxicity at the concentration of 10^−3M ([1]; LNCaP, 10^−3M): toxic; maximum reduction of the number of cells ([1]; LNCaP, 48 hours of incubation, highest concentration (10^−4), relative to control): 25%; maximum increase of mortality (non-viable cells) ([1]; LNCaP, 48 hours of incubation, relative to control): about 50%; concentrations at which nontoxic ([1]; general statement on the in vitro cell tests): below 10^−3 M; Bax/Bcl-2 ratio (mRNA) [2]: greatly increased; apoptosis in normal PrECs [3]: not influenced; synthesis of cyclin-D1 mRNA [4]: reduces; level of the SOD-1 protein [5]: decreases; toxicity at the dose of 10^−3M ([6]; PrECs, 10^−3M): toxic; state of cells after 72 hours with 10^−3M ([6]; PrECs, 10^−3M, 72 hours of incubation): completely dead; effect on the number of cells ([6]; normal PrECs, up to 72 hours of incubation, doses below 10^−3M): no effect; synthesis of cyclin-D1 mRNA [7]: no effect; Nrf-2 protein [8]: repressed
